Source: patent US5521311A, “5-aminoacetylaminosulfonanilide compounds” (Taisho Pharmaceutical Co., Ltd., priority 1993, dated 1996)
Counter-ions that a name gives are not always drawn. Like-named read-outs stand apart in the source and are kept apart here.

Assays:
[1] = tested on: adjuvant arthritis pain (squeaking response); assay: Adjuvant arthritis (pain) test; type: in vivo, Lewis strain rats; conditions: squeaking response over 5 hours after oral administration
[2] = tested on: carrageenin foot edema; assay: Carrageenin foot edema test; type: in vivo, Wister strain rats; conditions: for inhibition in vivo at 1 mg/kg / inhibition in vivo at 0.5 mg/kg: Rattus norvegicus, po, 3 h, read-out: Edema Inhibition rate; for inhibition in vivo at 0.5 mg/kg: *: dose of 0.5 mg/kg, orally
Experimental: Experiment 1 [Carrageenin foot edema test]
A carrageenin foot edema test was carried out according to the method of Winter et al [Proc. Soc. Exp. Biol. Med., vol. 111, page 544 (1962)].
Six Wister strain rats (for each group) were administered orally with the test drugs [the compounds (a) to (n) of the present invention] and the control drug (indomethacin), each suspended in 5% aqueous gum arabic solution in an amount of 1 ml per 100 g of body weight. An hour later, 0.1 ml of 1% carrageenin was administered subcutaneously into the left hind foot pad. Three hours after the administration of carrageenin, the volume of the foot was determined, and the edema inhibition rate (%) was calculated for the anti-inflammatory effect.
Doses of the test drugs (a) to (l) and the control drug (indomethacin) were each 1 mg/kg, and doses of test drugs (m) and (n) were each 0.5 mg/kg.

[3] = tested on: adjuvant arthritis; assay: Adjuvant arthritis (therapy) test; type: in vivo, Lewis strain rats; conditions: foot volume on the day after final administration
Experimental: Experiment 2 [Adjuvant arthritis (therapy) test]
An adjuvant arthritis (therapy) test was carried out according to the method of Winder et al [Arthritis Rheum., vol. 12, page 472 (1969)].
Seven Lewis strain rats (for each group) were administered subcutaneously 0.7% Mycobacterium tuberculosis suspended in liquid paraffin into the left hind foot pad to induce adjuvant arthritis. 15 to 18 Days after the administration of adjuvant, rats with fully developed arthritis were administered orally with test drugs [the compound (a), (b), (i), (j), (k) and (m) of the present invention]and the control drug (indomethacin), each suspended in 5% aqueous gum arabic solution in an amount of 1 ml per 100 g of body weight once a day for 4 days.
On the day after the final administration, the volume of the foot was determined, and the edema inhibition rate (%) was calculated for the therapeutical effect. Doses of the test drugs were each 0.5 mg/kg, and dose of the control drug (indomethacin) was 1.0 mg/kg.

[4] = 1 mg/kg orally, 1 hour before 1% carrageenin, foot volume 3 hours after carrageenin
[5] = test drugs 0.5 mg/kg orally once a day for 4 days
[6] = 1 hour before 1% carrageenin, foot volume 3 hours after carrageenin

CS(=O)(=O)Nc1ccc([N+](=O)[O-])cc1Oc1ccccc1 [Control drug, N-(4-nitro-2-phenoxyphenyl)methanesulfonamide, reference compound]
Inhibition rate ([1]; control drug, dose not separately stated): 19.4%

CCCCNCC(=O)Nc1cc(NS(C)(=O)=O)c(Oc2ccccc2)cc1[N+](=O)[O-] [Example 1, N-[5-(n-butylaminoacetylamino)4-nitro-2-phenoxyphenyl]methanesulfonamide]
inhibition in vivo at 1 mg/kg [2, 4]: 34.6%
Edema Inhibition rate [3, 5]: 61.1%
Inhibition rate ([1]; test drugs each 1.0 mg/kg): 50.6%

CCCNCC(=O)Nc1cc(NS(C)(=O)=O)c(Oc2ccccc2)cc1[N+](=O)[O-] [Example 2, N-[4-nitro-5-(n-propylaminoacetylamino)-2-phenoxyphenyl]methanesulfonamide]
inhibition in vivo at 1 mg/kg [2, 4]: 30.2%
Edema Inhibition rate ([3]; test drugs 0.5 mg/kg orally once a day for 4 days, listed as b): 54.4%
Inhibition rate ([1]; test drugs each 1.0 mg/kg, listed as b): 47.5%

CS(=O)(=O)Nc1cc(NC(=O)CNC2CC2)c([N+](=O)[O-])cc1Oc1ccccc1 [Example 5]
inhibition in vivo at 1 mg/kg [2, 4]: 31.4%

CS(=O)(=O)Nc1cc(NC(=O)CNC2CCCC2)c([N+](=O)[O-])cc1Oc1ccccc1 [Example 7]
inhibition in vivo at 1 mg/kg [2, 4]: 27.8%

CS(=O)(=O)Nc1cc(NC(=O)CNC2CCCCC2)c([N+](=O)[O-])cc1Oc1ccccc1 [Example 8]
inhibition in vivo at 1 mg/kg [2, 4]: 32.7%

C=CCNCC(=O)Nc1cc(NS(C)(=O)=O)c(Oc2ccccc2)cc1[N+](=O)[O-] [Example 9]
inhibition in vivo at 1 mg/kg [2, 4]: 31.9%

CS(=O)(=O)Nc1cc(NC(=O)CNCc2ccccc2)c([N+](=O)[O-])cc1Oc1ccccc1 [Example 10]
inhibition in vivo at 1 mg/kg [2, 4]: 35.8%

CNCC(=O)Nc1cc(NS(C)(=O)=O)c(Oc2ccccc2)cc1[N+](=O)[O-] [Example 20, N-(5-methylaminoacetylamino-4-nitro-2-phenoxyphenyl)methanesulfonamide]
inhibition in vivo at 1 mg/kg [2, 4]: 41.8%
Edema Inhibition rate [3, 5]: 53.0%

CCNCC(=O)Nc1cc(NS(C)(=O)=O)c(Oc2ccccc2)cc1[N+](=O)[O-] [Example 21, N-(5-ethylaminoacetylamino-4-nitro-2-phenoxyphenyl)methanesulfonamide]
inhibition in vivo at 1 mg/kg [2, 4]: 39.9%
Edema Inhibition rate [3, 5]: 54.2%

CS(=O)(=O)Nc1cc(NC(=O)CN)c([N+](=O)[O-])cc1Oc1ccccc1 [Example 22, N-(5-aminoacetylamino-4-nitro-2-phenoxyphenyl)methanesulfonamide]
inhibition in vivo at 1 mg/kg [2, 4]: 46.6%
Edema Inhibition rate [3, 5]: 52.9%
Inhibition rate ([1]; test drugs each 1.0 mg/kg): 41.9%

CCCCNCC(=O)Nc1cc(NS(C)(=O)=O)c(Oc2ccccc2)cc1[N+](=O)[O-].Cl [Example 23, N-[5-(n-butylaminoacetylamino)-4-nitro-2-phenoxyphenyl]methanesulfonamide hydrochloride]
Edema Inhibition rate [2, 4]: 25.1%

CCCNCC(=O)Nc1cc(NS(C)(=O)=O)c(Oc2ccccc2)cc1[N+](=O)[O-] [Example 24, N-[4-nitro-5-(n-propylaminoacetylamino)-2-phenoxyphenyl]methanesulfonamidehydrochloride]
inhibition in vivo at 0.5 mg/kg [2, 6]: 22.4%
Edema Inhibition rate ([3]; test drugs 0.5 mg/kg orally once a day for 4 days, listed as m): 53.0%
Inhibition rate ([1]; test drugs each 1.0 mg/kg, listed as m): 52.1%

CS(=O)(=O)Nc1cc(NC(=O)CN)c([N+](=O)[O-])cc1Oc1ccccc1 [Example 25, N-(5-aminoacetylamino-4-nitro-2-phenoxyphenyl)methanesulfonamide hydrochloride]
inhibition in vivo at 0.5 mg/kg [2, 6]: 27.9%

COc1ccc2c(c1)c(CC(=O)O)c(C)n2C(=O)c1ccc(Cl)cc1 [indomethacin, reference compound]
inhibition in vivo at 1 mg/kg [2]: 21.4%
Edema Inhibition rate ([3]; control drug 1.0 mg/kg orally once a day for 4 days): 39.5%

N-[2-Cyclohexyloxy-5-(n-propylaminoacetylamino)phenyl]methanesulfonamide [Example 18]
Edema Inhibition rate [2, 4]: 36.0%
